Reference: ChEMBL document CHEMBL6078668, “Synthesis and biological evaluation of lappaconitine analogues as potential anti-neuroinflammatory agents by side chain modification and scaffold hopping strategy” (Bioorg Med Chem, 2025)

Experiments:
BV-2 [1] = test: Anti-neuroinflammatory activity against LPS-stimulated C57BL/6 mouse BV-2 cells assessed as inhibition of NO release preincubated with compound for 4 hrs followed by LPS addition and measured after 24 hrs by Griess reagent based assay; format: functional, cell-based; details: C57BL/6, BV-2
[2] = Cytotoxicity against C57BL/6 mouse BV-2 cells assessed as survival rate at 30 uM incubated for 24 hrs by MTT assay relative to control; format: toxicity, cell-based; details: read-out: Survival
BV-2 [3] = test: Anti-neuroinflammatory activity against LPS-stimulated C57BL/6 mouse BV-2 cells assessed as inhibition of NO release at 30 uM preincubated with compound for 4 hrs followed by LPS addition and measured after 24 hrs by Griess reagent based assay relative to control; format: functional; details: C57BL/6, BV-2, time 28 hrs
[4] = Cytotoxicity against C57BL/6 mouse BV-2 cells assessed as survival rate at 10 uM incubated for 24 hrs by MTT assay relative to control; format: toxicity, cell-based; details: read-out: Survival
BV-2 [5] = test: Anti-neuroinflammatory activity against LPS-stimulated C57BL/6 mouse BV-2 cells assessed as inhibition of NO release at 10 uM preincubated with compound for 4 hrs followed by LPS addition and measured after 24 hrs by Griess reagent based assay relative to control; format: functional; details: C57BL/6, BV-2, time 28 hrs
[6] = Cytotoxicity against C57BL/6 mouse BV-2 cells assessed as survival rate at 20 uM incubated for 24 hrs by MTT assay relative to control; format: toxicity, cell-based; details: read-out: INH
BV-2 [7] = test: Anti-neuroinflammatory activity against LPS-stimulated C57BL/6 mouse BV-2 cells assessed as inhibition of NO release at 20 uM preincubated with compound for 4 hrs followed by LPS addition and measured after 24 hrs by Griess reagent based assay relative to control; format: functional; details: C57BL/6, BV-2, time 28 hrs

| SMILES | IC50 (BV-2 [1]) [µM] | viability at 24 h, 30 µM [2] [%] | inhibition at 30 µM (BV-2 [3]) [%] | further results |
| --- | --- | --- | --- | --- |
| CCN1C[C@]2(OC(=O)c3ccccc3NC(=O)CC(C)(C)C)CC[C@H](OC)[C@]34C1[C@@H](C[C@H]23)[C@@]1(O)C[C@H](OC)[C@H]2C[C@@H]4[C@]1(O)[C@H]2OC | 16.1 | 106 | 74.8 | – |
| CCc1ccc(C(=O)Nc2ccccc2C(=O)O[C@H]2[C@@H]3C[C@H]4[C@@]56C7[C@@H](C[C@@H]5[C@@](COC)(CC[C@@H]6OC)CN7CC)[C@@](O)(C[C@@H]3OC)[C@@]24O)cc1 | – | – | – | viability at 24 h, 10 µM [4]: 1.2% |
| CCN1C[C@]2(COC(=O)c3ccccc3NC(=O)c3ccc(Cl)s3)CC[C@H](OC)[C@]34C1[C@@H](C[C@H]23)[C@@]1(O)C[C@H](OC)[C@H]2C[C@@H]4[C@]1(O)[C@H]2OC | – | – | – | viability at 24 h, 10 µM [4]: 105%; inhibition at 10 µM (BV-2 [5]): 13.5% |
| CCN1C[C@]2(COC(=O)c3ccccc3NC(=O)c3ccc(Cl)s3)CC[C@H](OC)[C@]34C1[C@@H](C[C@H]23)[C@@]1(O)C[C@H](OC)[C@H]2C[C@@H]4[C@]1(O)[C@H]2O | – | – | – | viability at 24 h, 20 µM [6]: 104%; inhibition at 20 µM (BV-2 [7]): 45.3% |
| CCc1ccc(C(=O)Nc2ccccc2C(=O)O[C@@]23CC[C@H](OC)[C@]45C([C@@H](C[C@H]24)[C@@]2(O)C[C@H](OC)[C@H]4C[C@@H]5[C@]2(O)[C@H]4OC)N(CC)C3)cc1 | 10.4 | 107 | 83.9 | – |
| CCc1ccc(C(=O)Nc2ccccc2C(=O)OC[C@@]23CC[C@H](OC)[C@]45C([C@@H](C[C@H]24)[C@@]2(O)C[C@H](OC)[C@H]4C[C@@H]5[C@]2(O)[C@H]4OC)N(CC)C3)cc1 | – | – | – | viability at 24 h, 20 µM [6]: 102%; inhibition at 20 µM (BV-2 [7]): 21.7% |
| CCN1C[C@]2(OC(=O)c3ccccc3NC(=O)c3ccc(N(C)C)cc3)CC[C@H](OC)[C@]34C1[C@@H](C[C@H]23)[C@@]1(O)C[C@H](OC)[C@H]2C[C@@H]4[C@]1(O)[C@H]2OC | 23.6 | 101 | 62.4 | – |
| CCN1C[C@]2(OC(=O)c3ccccc3NC(=O)S(=O)(=O)c3c(C)c(C)c4c(c3C)CC(C)(C)O4)CC[C@H](OC)[C@]34C1[C@@H](C[C@H]23)[C@@]1(O)C[C@H](OC)[C@H]2C[C@@H]4[C@]1(O)[C@H]2OC | – | – | – | viability at 24 h, 10 µM [4]: 95.8%; inhibition at 10 µM (BV-2 [5]): 17.5% |
| CCN1C[C@]2(OC(=O)c3ccccc3NC(=O)S(=O)(=O)c3ccc(Br)s3)CC[C@H](OC)[C@]34C1[C@@H](C[C@H]23)[C@@]1(O)C[C@H](OC)[C@H]2C[C@@H]4[C@]1(O)[C@H]2OC | 11.4 | 103 | 81.9 | – |
| CCN1C[C@]2(OC(=O)c3ccccc3NC(=O)S(=O)(=O)c3cccnc3)CC[C@H](OC)[C@]34C1[C@@H](C[C@H]23)[C@@]1(O)C[C@H](OC)[C@H]2C[C@@H]4[C@]1(O)[C@H]2OC | 22.2 | 99.3 | 63.2 | – |
| CCN1C[C@]2(OC(=O)c3ccccc3NC(=O)S(=O)(=O)c3cc(F)cc(F)c3)CC[C@H](OC)[C@]34C1[C@@H](C[C@H]23)[C@@]1(O)C[C@H](OC)[C@H]2C[C@@H]4[C@]1(O)[C@H]2OC | 20.4 | 102 | 64.1 | – |
| CCN1C[C@]2(COC)CC[C@H](OC)[C@]34C1[C@@H](C[C@H]23)[C@@]1(O)C[C@H](OC)[C@H]2C[C@@H]4[C@]1(O)[C@H]2OC(=O)c1ccccc1NC(=O)c1ccc(Cl)s1 | – | – | – | viability at 24 h, 10 µM [4]: 97.8%; inhibition at 10 µM (BV-2 [5]): 22.2% |
| CCN1C[C@]2(OC(=O)c3ccccc3NC(=O)c3ccc(Cl)s3)CC[C@H](OC)[C@]34C1[C@@H](C[C@H]23)[C@@]1(O)C[C@H](OC)[C@H]2C[C@@H]4[C@]1(O)[C@H]2OC | 11.3 | 108 | 82.1 | – |
| CCN1C[C@]2(COC)CC[C@H](OC)[C@]34C1[C@@H](C[C@H]23)[C@@]1(O)C[C@H](OC)[C@H]2C[C@@H]4[C@]1(O)[C@H]2OC(=O)c1ccccc1NS(=O)(=O)c1cccc(F)c1 | – | – | – | viability at 24 h, 20 µM [6]: 100%; inhibition at 20 µM (BV-2 [7]): 18.5% |
| CCN1C[C@]2(OC(=O)c3ccccc3NC(=O)S(=O)(=O)c3c(Cl)sc4ccccc34)CC[C@H](OC)[C@]34C1[C@@H](C[C@H]23)[C@@]1(O)C[C@H](OC)[C@H]2C[C@@H]4[C@]1(O)[C@H]2OC | – | – | – | viability at 24 h, 10 µM [4]: 98.5%; inhibition at 10 µM (BV-2 [5]): 26.4% |
| CCN1C[C@]2(OC(=O)c3ccccc3NC(=O)S(=O)(=O)c3ccc(Cl)s3)CC[C@H](OC)[C@]34C1[C@@H](C[C@H]23)[C@@]1(O)C[C@H](OC)[C@H]2C[C@@H]4[C@]1(O)[C@H]2OC | 17.9 | 100 | 69 | – |
| CCN1C[C@]2(OC(=O)c3ccccc3NC(=O)S(=O)(=O)c3ccccc3F)CC[C@H](OC)[C@]34C1[C@@H](C[C@H]23)[C@@]1(O)C[C@H](OC)[C@H]2C[C@@H]4[C@]1(O)[C@H]2OC | 18.9 | 106 | 68 | – |
| CCN1C[C@]2(COC)CC[C@H](OC)[C@]34C1[C@@H](C[C@H]23)[C@@]1(O)C[C@H](OC)[C@H]2C[C@@H]4[C@]1(O)[C@H]2OC(=O)c1ccccc1NS(=O)(=O)c1ccc(Br)s1 | – | – | – | viability at 24 h, 20 µM [6]: 110%; inhibition at 20 µM (BV-2 [7]): 32.8% |
| CCCOc1ccccc1C(=O)Nc1ccccc1C(=O)O[C@@]12CC[C@H](OC)[C@]34C([C@@H](C[C@H]13)[C@@]1(O)C[C@H](OC)[C@H]3C[C@@H]4[C@]1(O)[C@H]3OC)N(CC)C2 | 11.8 | 106 | 78.5 | – |
| CCN1C[C@]2(OC(=O)c3ccccc3NC(=O)c3ccc(Br)s3)CC[C@H](OC)[C@]34C1[C@@H](C[C@H]23)[C@@]1(O)C[C@H](OC)[C@H]2C[C@@H]4[C@]1(O)[C@H]2OC | 16.5 | 103 | 72.9 | – |
| CCc1ccc(C(=O)Nc2ccccc2C(=O)OC[C@@]23CC[C@H](OC)[C@]45C([C@@H](C[C@H]24)[C@@]2(O)C[C@H](OC)[C@H]4C[C@@H]5[C@]2(O)[C@H]4O)N(CC)C3)cc1 | – | 104 | 15.5 | – |
| CCN1C[C@]2(OC(=O)c3ccccc3NC(=O)S(=O)(=O)c3ccc4c(c3)OCC4)CC[C@H](OC)[C@]34C1[C@@H](C[C@H]23)[C@@]1(O)C[C@H](OC)[C@H]2C[C@@H]4[C@]1(O)[C@H]2OC | – | 96.3 | 9.9 | – |
| CCc1ccc(C(=O)Nc2ccccc2C(=O)O)cc1 | – | 101 | 11.9 | – |
| CCN1C[C@]2(OC(=O)c3ccccc3NC(=O)c3cccc(C)c3)CC[C@H](OC)[C@]34C1[C@@H](C[C@H]23)[C@@]1(O)C[C@H](OC)[C@H]2C[C@@H]4[C@]1(O)[C@H]2OC | – | 112 | 15.6 | – |
| CCCC(C)C(=O)Nc1ccccc1C(=O)O[C@@]12CC[C@H](OC)[C@]34C([C@@H](C[C@H]13)[C@@]1(O)C[C@H](OC)[C@H]3C[C@@H]4[C@]1(O)[C@H]3OC)N(CC)C2 (some centres not stated) | – | 108 | 57.8 | – |
| CCN1C[C@]2(OC(=O)c3ccccc3NC(=O)C(C)C)CC[C@H](OC)[C@]34C1[C@@H](C[C@H]23)[C@@]1(O)C[C@H](OC)[C@H]2C[C@@H]4[C@]1(O)[C@H]2OC | – | 105 | 8.9 | – |
| CCN1C[C@]2(OC(=O)c3ccccc3NC(=O)S(=O)(=O)c3cncc(Br)c3)CC[C@H](OC)[C@]34C1[C@@H](C[C@H]23)[C@@]1(O)C[C@H](OC)[C@H]2C[C@@H]4[C@]1(O)[C@H]2OC | – | 91.5 | 20.3 | – |
| CCCOc1ccc(C(=O)Nc2ccccc2C(=O)O[C@@]23CC[C@H](OC)[C@]45C([C@@H](C[C@H]24)[C@@]2(O)C[C@H](OC)[C@H]4C[C@@H]5[C@]2(O)[C@H]4OC)N(CC)C3)cc1 | 15.5 | 105 | 74.8 | – |
